In the case of `CCC(=O)C1=C(O)CC(c2ccc3c(c2)OCCO3)CC1=O` (centres undefined), the melting point worked out at 155 °C.
Molecule `CC(C)(C)NC1CCCCC1O` (centres undefined) gave a melting point of 42 to 44 °C.
The same measure for `COC1CCC2(C)C(=CC(=O)C3C2CCC2(C)C(OC(C)=O)CCC32)C1` (centres undefined): 168 to 170 °C; for `CCOC(=NC(=O)Nc1ccc(Oc2ncc(C(F)(F)F)cc2Cl)cc1)c1c(F)cccc1F`: 127 to 130 °C; for `COc1ccc(-c2nc(COc3cccc([N+](=O)[O-])c3)c(C)o2)cc1`: 109 to 111 °C.
Then `Cn1nc(-c2ccccc2Cl)nc1-c1cccc([N+](=O)[O-])c1Cl`, with 124 to 125 °C.
Then `CCCCCCCCCCCCCCCCNc1ccc(C(=O)OC)cc1`, with 74 to 75 °C; and `CO/N=C(/CNC(=O)c1cnc(OCC(F)(F)F)c(-c2ccc(Cl)c(Cl)c2)c1)C(F)(F)F`, with 124 to 126 °C.
`O=c1cc(-c2ccncn2)nc2n1CCCCC2C1CC1` (racemic): the melting point is 139 to 140 °C.
The same measure for `O=C(c1ccccc1)c1ccccc1C#CCN1C(=O)c2ccccc2C1=O`: 164 to 165 °C.
The same measure for `O=C1NCCCc2cc(CCN3CCC(c4noc5cc(F)ccc45)CC3)sc21`: 192 to 194 °C; for `FC(F)Oc1ccc2c(Cc3c(Cl)cncc3Cl)nnc(N3CCOCC3)c2c1`: 129 to 131 °C; for `Cc1cc(-c2c(-c3ccc(OCC(F)(F)F)c(C(F)(F)F)c3)nc3cncn3c2C(F)(F)F)ccn1`: 219 °C.
As to `NC(=O)c1ccc(Sc2ccc(Cl)cc2)c(Cl)c1`, the melting point was in the range of 176 to 177 °C.
`O=S(=O)(NC1C2CCC(C2)C1CO)c1ccccc1` (centres undefined): the melting point lay in the range of 118 to 120 °C.
The same measure for `CC(C)(C)CCCC(=O)Cn1ccnc1`: 45 to 46 °C; for `COC(C)c1cccc2oc(C(=O)O)c(C)c12` (centres undefined): 113 to 115 °C.
Regarding `Cc1nc2cc(CCCN3C(=O)c4ccccc4C3=O)ccc2s1`, the melting point was 126 °C.
Take `COC[C@H]1CN(c2ccc(CCC[C@@H](C)O)cc2)C(=O)O1`: the melting point amounted to 65 °C.
Then `CCCCCCCCCCC(C(=O)CCCCO)P(=O)(c1ccccc1)c1ccccc1` (centres undefined), with 70 °C.
The same measure for `Cc1c(C(F)(F)F)cc(Cl)c(-n2cnc(C(F)(F)F)cc2=O)c1Cl`: 204 to 206 °C; for `CCCCCCCCCCCCCCCCc1ccc(S(=O)(=O)Cl)cc1`: 35 to 36 °C; for `Oc1ccc2c(c1CNc1ccc(F)cc1F)CCCO2`: 120 to 121 °C.
For the molecule `COCCNC(=O)c1cccc(-c2cccc3cc(Cc4cccc(C#N)c4)sc23)c1`, the melting point was 86 to 92 °C.
Molecule `CC1=Nc2ccc(S(=O)(=O)NC3CCCCC3)cc2S(=O)(=O)N1` came in with a melting point of 239 to 242 °C.
For the molecule `C=CC(=O)Nc1csc(Br)n1`, the melting point was 152 to 154 °C.
Consider `CCCCCCCCCCCCCC[C@@H]1CO[C@@H](CO)C1` (relative stereo), for which the melting point was 27.1 to 27.7 °C.
The same measure for `Nc1ccc(OCC(O)CN2CCN(c3ccccc3C(=O)O)CC2)cc1` (centres undefined): 260 to 263 °C.
As for `Fc1cc(Cl)c(Br)c(Cl)c1`, the melting point was found to be 83 °C.
The same measure for `O=c1ccn(-c2c(O)c3ccc(Cl)cc3[nH]c2=O)cc1`: 340 °C; for `CCN(CC)CCN(C)C1(c2ccccc2Cl)C(=O)Nc2ccc(Cl)cc21` (centres undefined): 140 °C.
Then `COc1ccc(-n2cnc3ccc(-c4nnc(SC)o4)cc32)cc1`, with 187 to 188 °C.
In turn, `CC(=O)c1ccc(F)c(COc2ccc(S(=O)(=O)c3ccc(C)nc3Nc3c(C)cc(C)cc3C)cc2)c1` showed a melting point of 141 to 143 °C.
As to `CCCCCCCCCCCCCCOC(=O)CNC(=O)OCc1ccccc1`, the melting point lay within 57 to 58 °C.
In turn, `COc1ccc(C(=O)c2cccc(OCc3nc(-c4ccccc4)oc3C)c2)c(OCC(=O)O)c1` showed a melting point of 198 to 199 °C.
`O=C(NO)c1ccc(C(=O)NOCCCc2ccccc2)cc1`: the melting point was in the range of 179 to 181 °C.
Then `COc1ccc2[nH]c(C)c(CCNC(=O)C3CC3)c2c1`, with 102 to 103 °C.
The same measure for `COc1ccc2[nH]cc(CC(=O)N3CCN(c4ccc(N)cc4)CC3)c2c1`: 119 to 120 °C; for `Cn1ncc(C(=O)NC2CC2)c1Cl`: 105 to 107 °C; for `NC(=O)CCn1c(-c2ccc(Cl)cc2)nc2cccnc21`: 248 to 250 °C.
Then `CC(C)c1sc2ncnc(N)c2c1-c1ccc(N)cc1`, with 187 to 189 °C; and `Clc1ccc2c(c1)OCc1cccnc1C2N1CCNCC1` (centres undefined), with 162 to 164 °C.
The molecule `COC(=O)c1nc(Cl)cnc1N=S(C)C` registered a melting point of 167 to 169 °C.
Then `Cc1ccc(C)n1-c1ccc(C2(C#N)CCCC2)cc1`, with 117 to 120 °C; and `CCC(CC)C(=O)Nc1ccc2ncnc(NC=C(C(=O)OC)C(=O)OC)c2c1`, with 221 to 225 °C; and `CCOCCn1c(NC2CCN(C(=O)c3ccccc3N)C(Cc3ccccc3)C2)nc2ccccc21` (centres undefined), with 197 °C.
`CC(C)(C)c1cnc(C(=O)Nc2cc(-c3cc(Nc4ccc(-c5ccncc5)nn4)c(=O)[nH]n3)ccc2F)cn1` gave a melting point above 300 °C.
`Cc1nnc([C@H](Nc2ccc(C#N)c(Cl)c2C)[C@H](C)O)o1` gave a melting point of 181 to 183 °C.
Regarding `CN1CCN(c2ncc(-c3cc(Cl)cc(Cl)c3Cl)c(N)n2)CC1`, the melting point fell in the range of 162 to 164 °C.
The molecule `Cc1c(CC=CCCC(=O)O)cccc1C(=O)c1ccc(Cl)cc1` came in with a melting point of 73 °C.
The same measure for `CC(C)Cn1c(CNC(=O)OC(C)(C)C)c(-c2cccs2)c2cc(OCC(N)=O)ccc2c1=O`: 219 to 221 °C; for `CCC1(CC)c2cc(Br)ccc2-c2ccc(Br)cc21`: 144 to 153 °C; for `CC(CC#N)C(C#N)(c1cccc(C(F)(F)F)c1)N1CCOCC1` (centres undefined): 115 to 118 °C.
The same measure for `CN(C)C=C(C#N)C(=O)Nc1ccc(F)cc1Cl`: 138 to 139 °C; for `Cc1cc(-c2cc(O)c(SCCc3ccccc3)c(=O)o2)ccc1OCc1cccnc1`: 149 to 151 °C.
The same measure for `O=CC1Cc2cc(C(=O)c3cccs3)c(Cl)c(Cl)c2O1` (centres undefined): 162 to 164 °C.
As to `Cc1ccc(S(=O)(=O)c2cn(S(=O)(=O)c3ccccc3)c3ccccc23)cc1`, the melting point lay in the range of 189 to 190 °C.
The same measure for `CCCCCCCCCCCCCCCCCC(=O)Nc1cccc(N(CC(=O)OC)CC(=O)OC)c1`: 78 to 79 °C; for `Cc1cc2c3c(c1)[nH]c(=O)n3CC(C)NC2` (centres undefined): 199 °C; for `COc1ccc(C)cc1NC(=O)Nc1ccc2c(c1)CCN(C(=O)Oc1ccc(CCO)cc1Cl)C2`: 95 to 98 °C.
The same measure for `CC1=CC(O)C(OC(=O)c2ccc(Cl)cc2)C(C)(C)CC1=O` (centres undefined): 114 to 116 °C.
The same measure for `OC1C(COC2CC2)OC(n2cnc3c(NCc4cccc(I)c4)nc(Cl)nc32)C1O` (centres undefined): 94 to 96 °C.
Consider `O=C(CCl)Nc1ccccc1C(=O)c1ccccc1C(F)(F)F`, for which the melting point lay within 79 to 81 °C.
The same measure for `CCCS(=O)(=O)Nc1c(C(=O)c2ccccc2)[nH]c2cc(Cl)ccc12`: 164 to 167 °C; for `Cc1noc(NS(=O)(=O)c2ccc(N(C)C)cc2)c1C`: 152 to 154 °C; for `CCCCCc1ccc(-c2ccc(CCc3ccc(F)cc3)cc2)cc1`: 60 °C.
Then `CCOC(=O)C(=COS(=O)(=O)c1ccc(C)cc1)c1ccccc1`, with 159 to 160 °C.
The same measure for `CCc1c(C)nc2ccc([N+](=O)[O-])cn2c1=O`: 164 to 165 °C; for `Cc1cc2c3c(c1N)c(=O)c(C(=O)O)cn3C(C)CC2` (centres undefined): 264 to 266 °C.
Molecule `O=Cc1cccc(Sc2ccccc2Cl)c1O` had a melting point of 111 to 112 °C.
Then `CCCCn1nc(-c2ccccc2)c(CC(=O)O)c1-c1ccccc1`, with 97 to 98 °C; and `O=C(Nc1ccc(-n2nc(C(F)(F)F)cc2C(F)(F)F)cc1)c1c(F)cccc1F`, with 127 to 128 °C.
On to `CCn1nnnc1SCc1c(S(C)(=O)=O)ccc(C(=O)OC2=CC(=O)CCC2)c1Cl`, for which the melting point lay within 122 to 123 °C.
Then `CCOC(=O)c1nc2ccc(N)cc2c(O)c1C(=O)OCC`, with 219 to 221 °C.
Regarding `COc1cccc(C(Cn2ccnc2)=[N+](C)[O-])c1`, the melting point is 87 to 90 °C.
As for `COc1cc(F)ccc1Oc1c(Cl)ncnc1NS(=O)(=O)c1ccc(C(C)(C)C)cc1`, the melting point lay within 146 to 147 °C.
`Cn1ccnc1CCNS(=O)(=O)c1ccccc1[N+](=O)[O-]` had a melting point of 193 to 199 °C.
The same measure for `Cc1cc(Br)cnc1CCCCNC1=NS(=O)(=O)c2cc(-c3ccccn3)ccc21`: 233 to 234 °C.
The same measure for `COc1ccccc1N1CCN(C(=O)N(C)c2nc(C)c(C)nc2OC)CC1`: 140 to 142 °C; for `COc1cccc(-c2cnn(-c3ccccn3)c2)c1`: 89 to 90 °C; for `CCCCCCN(Cc1ccc(F)cc1)c1ccc(C(=O)OCC)cc1`: 41 to 42 °C.
`Fc1cccc(F)c1-c1ncc(NCc2ccc(Cl)cc2)nn1` registered a melting point of 200 to 205 °C.
Then `C#CC(O)(c1ccccc1)c1ccncc1` (centres undefined), with 165 to 166 °C; and `COc1cc(OC)c2c(=O)[nH]c(-c3ccc(OCCO)c(-c4ccc(S(C)=O)cc4)n3)nc2c1` (centres undefined), with 281 to 282 °C.
Then `COc1cc(Oc2ccc(S(C)(=O)=O)nc2)cc2cc(C3=NCC(CC(=O)NC[C@H](C)O)S3)[nH]c12` (some centres undefined), with 185 to 186 °C; and `CC(C)C(NC(=O)OCc1ccccn1)C(=O)NC(Cc1ccccc1)C(O)C(Cc1ccccc1)NC(=O)C(NC(=O)OCc1ccccn1)C(C)C` (centres undefined), with 155 to 156 °C; and `CCCc1c(OCCCOc2ccc(C(=O)O)cc2Br)ccc(C(C)=O)c1O`, with 180 to 182 °C.
Then `CCCCCCCCCCC/C=C\c1c[nH]c(C(=O)O)c1`, with 157 to 158 °C; and `Cc1cccc(Cn2c(NC3CCN(CCNc4ncccn4)CC3)nc3cccnc32)n1`, with 187 °C.

As usually defined, the melting point is the temperature of the solid-liquid transition.

Values taken from a melting point compilation (Tetko et al.; mined from patent text by program, amines drawn as free bases though some values may be those of a salt).
